In BindingDB's records for doi:10.1016/0960-894X(96)00186-2 (1996) one finds IC50 data, which are given here for one compound.

A short description of test [1]: Compound was tested for binding activity against Opioid receptor delta 1 in bovine striatal membranes using 0.2 nM [3H]p-CI-DPDPE as the radioligand.
Test [2] in a line: Compound was tested for binding activity against Opioid receptor kappa 1 in bovine striatal membranes using 1 nM [3H]U-69593 as the radioligand.

Structures are written as SMILES.

As usually defined, the IC50 is the concentration that inhibits the measured activity by half. A high value points to lower potency.

`O=C(CSSCC(=O)N[C@@]12CCC(=O)[C@@H]3Oc4c(O)ccc5c4[C@@]31CCN(CC1CCC1)[C@@H]2C5)N[C@@]12CCC(=O)[C@@H]3Oc4c(O)ccc5c4[C@@]31CCN(CC1CCC1)[C@@H]2C5` [N-CBM-TAMO]: the IC50 came to 12 nM in test [1] and 6.3 nM in test [2].
